# Target: T1, CYP11A1 (Homo sapiens, UniProt P05108)
# T1 construct: human H295R adrenocortical carcinoma cell line was used as source of enzyme; endogenous in cells; host or cells: H295R human adrenocortical carcinoma cells
# T1 sequence (P05108 40-521): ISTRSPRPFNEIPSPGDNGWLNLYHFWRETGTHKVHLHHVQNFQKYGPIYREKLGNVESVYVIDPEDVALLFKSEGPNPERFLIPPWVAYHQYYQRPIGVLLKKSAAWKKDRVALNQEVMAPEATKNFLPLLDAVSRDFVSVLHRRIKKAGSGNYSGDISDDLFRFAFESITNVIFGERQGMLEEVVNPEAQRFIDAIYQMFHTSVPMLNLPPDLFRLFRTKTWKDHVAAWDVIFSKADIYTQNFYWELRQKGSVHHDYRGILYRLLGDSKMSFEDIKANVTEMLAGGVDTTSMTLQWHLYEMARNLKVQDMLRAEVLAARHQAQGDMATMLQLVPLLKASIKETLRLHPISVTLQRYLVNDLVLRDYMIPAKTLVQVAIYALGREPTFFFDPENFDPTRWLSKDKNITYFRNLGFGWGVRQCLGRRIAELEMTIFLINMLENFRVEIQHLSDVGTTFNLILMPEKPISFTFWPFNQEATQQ
# Assay: CYP11A1 inhibition: modified isocaproic acid release assay (IARA) in H295R cells
# Format: cell-based
# Settings: human H295R adrenocortical carcinoma cells treated three days, 3 nM [24,25-3H]-labelled cholesterol, 1% DMSO, 10 concentrations in duplicates; read-out: IC50 of the test compounds on CYP11A1 inhibition
# In short: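 H295R adrenocortical cells treated three days with test compounds at 10 concentrations in duplicate plus 3 nM [24,25-3H]-cholesterol, 1% DMSO final. Released radiolabelled isocaproic acid measured by scintillation counting after dextran-coated charcoal extraction; IC50 determined.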
row,IC50 [nM],Structure (SMILES)
1,< 150,"COc1ccc2c(c1)CN(Cc1cc(=O)c(OCc3ccc(C(=O)N(C)C)cc3)co1)C2 [Compound 138, 4-(((6-((5-Methoxyisoindolin-2-yl)methyl)-4-oxo-4H-pyran-3-yl)oxy)methyl)-N,N-dimethylbenzamide]"
2,< 150,CC(c1cc(=O)c(OCC2CCN(S(C)(=O)=O)CC2)co1)N1Cc2ccccc2C1 (stereo not shown) [Compound 195]
3,301 to 2000,"CN1Cc2cc(COc3coc(CN4Cc5ccccc5C4)cc3=O)ccc2C1=O [Compound 106, 5-(((6-(Isoindolin-2-ylmethyl)-4-oxo-4H-pyran-3-yl)oxy)methyl)-2-methyl-isoindolin-1-one]"
4,150 to 300,"CS(=O)(=O)c1ccc(COc2coc(CN3Cc4ccc(Cl)cc4C3)cc2=O)cc1 [Compound 64, 2-((5-Chloroisoindolin-2-yl)methyl)-5-((4-(methylsulfonyl)benzyl)oxy)-4H-pyran-4-one]"
5,150 to 300,"CSc1ccc2c(c1)CN(Cc1cc(=O)c(OCC3CCN(S(C)(=O)=O)CC3)co1)C2 [Compound 208, 5-((1-(Methylsulfonyl)piperidin-4-yl)methoxy)-2-((5-(methylthio)isoindolin-2-yl)methyl)-4H-pyran-4-one]"
6,301 to 2000,"C[C@H]1c2ccccc2CN1Cc1cc(=O)c(OCc2ccc(C(=O)N(C)C)cc2)co1 [Compound 132, (S)—N,N-Dimethyl-4-(((6-((1-methylisoindolin-2-yl)methyl)-4-oxo-4H-pyran-3-yl)oxy)methyl)benzamide]"
7,< 150,"N=S(=O)(c1ccc(COc2coc(CN3Cc4ccccc4C3)cc2=O)cc1)C1CCC1 (stereo not shown) [Compound 71, 5-((4-(Cyclobutanesulfonimidoyl)benzyl)oxy)-2-(isoindolin-2-ylmethyl)-4H-pyran-4-one]"
8,150 to 300,"CN(C)C(=O)c1ccc(COc2coc(CN3Cc4ccccc4C3)cc2=O)c(F)c1 [Compound 61, 3-Fluoro-4-(((6-(isoindolin-2-ylmethyl)-4-oxo-4H-pyran-3-yl)oxy)methyl)-N,N-dimethylbenzamide]"
9,< 150,"O=c1cc(CN2Cc3ccccc3C2)occ1OCc1ccc(S(=O)(=O)C2CC2)cc1 [Compound 72, 5-((4-(Cyclopropylsulfonyl)benzyl)oxy)-2-(isoindolin-2-ylmethyl)-4H-pyran-4-one]"
10,< 150,"CS(=N)(=O)c1ccc(COc2coc(CN3Cc4ccc(C(F)(F)F)cc4C3)cc2=O)cc1 (stereo not shown) [Compound 89, 5-((4-(S-Methylsulfonimidoyl)benzyl)oxy)-2-((5-(trifluoromethyl)isoindolin-2-yl)methyl)-4H-pyran-4-one]"
11,301 to 2000,"CS(=O)(=O)c1ccc(COc2coc(CN3Cc4cc5c(cc4C3)OCO5)cc2=O)cc1 [Compound 66, 2-((5,7-Dihydro-6H-[1,3]dioxolo[4,5-f]isoindol-6-yl)methyl)-5-((4-(methyl-sulfonyl)benzyl)oxy)-4H-pyran-4-one]"
12,< 150,"CS(=O)(=O)N1CCC(COc2coc(CN3Cc4ccc(OC(F)(F)F)cc4C3)cc2=O)CC1 [Compound 205, 5-((1-(Methylsulfonyl)piperidin-4-yl)methoxy)-2-((5-(trifluoromethoxy)-isoindolin-2-yl)methyl)-4H-pyran-4-one]"
13,< 150,"N#Cc1ccc(COc2coc(CN3Cc4ccc(Br)cc4C3)cc2=O)cc1 [Compound 278, 4-((6-((5-Bromoisoindolin-2-yl)methyl)-4-oxo-4H-pyran-3-yloxy)methyl)benzonitrile]"
14,< 150,"CN(C)S(=O)(=O)N1CCC(COc2coc(CN3Cc4ccccc4C3)cc2=O)CC1 [Compound 225, 4-(((6-(Isoindolin-2-ylmethyl)-4-oxo-4H-pyran-3-yl)oxy)methyl)-N,N-dimethyl-piperidine-1-sulfonamide]"
15,301 to 2000,"Nc1cccc(COc2coc(CN3Cc4ccccc4C3)cc2=O)c1 [Compound 263, 5-((3-Aminobenzyl)oxy)-2-(isoindolin-2-ylmethyl)-4H-pyran-4-one]"
16,150 to 300,"CC(=O)N=S(C)(=O)c1ccc(COc2coc(CN3Cc4ccccc4C3)cc2=O)cc1 (stereo not shown) [Compound 94, N-{[4-({[6-(1,3-dihydro-2H-isoindol-2-ylmethyl)-4-oxo-4H-pyran-3-yl]oxy}-methyl)phenyl](methyl)oxido-λ^6-sulfanylidene}]"
17,301 to 2000,"CS(=O)(=O)c1ccc(COc2coc(CN3Cc4ccccc4C3)cc2=O)c(Cl)c1 [Compound 16, 5-((2-Chloro-4-(methylsulfonyl)benzyl)oxy)-2-(isoindolin-2-ylmethyl)-4H-pyran-4-one]"

row,IC50 [nM],Structure (SMILES)
1,150 to 300,"CS(=O)(=O)N1[C@@H]2CC[C@H]1CC(COc1coc(CN3Cc4ccccc4C3)cc1=O)C2 (stereo partly drawn) [Compound 177, 2-(Isoindolin-2-ylmethyl)-5-(((1R,5S)-8-(methylsulfonyl)-8-azabicyclo[3.2.1]-octan-3-yl)methoxy)-4H-pyran-4-one]"
2,< 150,"CN(CCO)S(=O)(=O)c1ccc(COc2coc(CN3Cc4ccccc4C3)cc2=O)cc1 [Compound 12, N-(2-Hydroxyethyl)-4-(((6-(isoindolin-2-ylmethyl)-4-oxo-4H-pyran-3-yl)-oxy)methyl)-N-methylbenzenesulfonamide]"
3,301 to 2000,"N=S1(=O)CCC(COc2coc(CN3Cc4ccccc4C3)cc2=O)CC1 (stereo not shown) [Compound 242, 5-((1-Imino-1-oxidohexahydro-1λ^6-thiopyran-4-yl)methoxy)-2-(isoindolin-2-ylmethyl)-4H-pyran-4-one]"
4,301 to 2000,"COC(=O)[C@H]1CC[C@H](COc2coc(CN3Cc4ccccc4C3)cc2=O)CC1 [Compound 178, Methyl (1r,4r)-4-(((6-(isoindolin-2-ylmethyl)-4-oxo-4H-pyran-3-yl)oxy)methyl)-cyclohexane-1-carboxylate]"
5,< 150,"O=C(N1CCCC1)N1CCC(COc2coc(CN3Cc4ccccc4C3)cc2=O)CC1 [Compound 215, 2-(Isoindolin-2-ylmethyl)-5-((1-(pyrrolidine-1-carbonyl)piperidin-4-yl)methoxy)-4H-pyran-4-one]"
6,< 150,"CN(C)C(=O)C1CCC(COc2coc(CN3Cc4ccccc4C3)cc2=O)CC1 (stereo not shown) [Compound 217, 4-(((6-(Isoindolin-2-ylmethyl)-4-oxo-4H-pyran-3-yl)oxy)methyl)-N,N-dimethyl-cyclohexane-1-carboxamide]"
7,301 to 2000,"CS(=N)(=O)C1CCC(COc2coc(CN3Cc4ccccc4C3)cc2=O)CC1 (stereo not shown) [Compound 240, 2-(Isoindolin-2-ylmethyl)-5-((4-(S-methylsulfonimidoyl)cyclohexyl)methoxy)-4H-pyran-4-one]"
8,< 150,"CC(c1cc(=O)c(OCc2ccc(S(C)(=N)=O)cc2)co1)N1Cc2ccccc2C1 (stereo not shown) [Compound 91, 2-(1-(Isoindolin-2-yl)ethyl)-5-((4-(S-methylsulfonimidoyl)benzyl)oxy)-4H-pyran-4-one]"
9,150 to 300,"CCOC(=O)C(=O)N1CCC(COc2coc(CN3Cc4ccccc4C3)cc2=O)CC1 [Compound 269, Ethyl 2-(4-(((6-(isoindolin-2-ylmethyl)-4-oxo-4H-pyran-3-yl)oxy)methyl)-piperidin-1-yl)-2-oxoacetate]"
10,< 150,"Cn1nccc1S(=O)(=O)N1CCC(COc2coc(CN3Cc4ccccc4C3)cc2=O)CC1 [Compound 255, 2-(Isoindolin-2-ylmethyl)-5-((1-((1-methyl-1H-pyrazol-5-yl)sulfonyl)piperidin-4-yl)methoxy)-4H-pyran-4-one]"
11,< 150,"O=c1cc(CN2Cc3ccccc3C2)occ1OCC1CCN(S(=O)(=O)C2COC2)CC1 [Compound 36, 2-(Isoindolin-2-ylmethyl)-5-((1-(oxetan-3-ylsulfonyl)piperidin-4-yl)methoxy)-4H-pyran-4-one]"
12,< 150,"CCCC(=O)N1CCC(COc2coc(CN3Cc4ccccc4C3)cc2=O)CC1 [Compound 221, 5-((1-Butyrylpiperidin-4-yl)methoxy)-2-(isoindolin-2-ylmethyl)-4H-pyran-4-one]"
13,301 to 2000,"CS(=O)(=O)c1ccc(COc2coc(CN3Cc4cccc(F)c4C3)cc2=O)cc1 [Compound 27, 2-((4-Fluoroisoindolin-2-yl)methyl)-5-((4-(methylsulfonyl)benzyl)oxy)-4H-pyran-4-one]"
14,301 to 2000,"CS(=O)(=O)c1ccc(COc2coc(CN3CCc4ccccc4C3)cc2=O)c(Cl)c1 [Compound 18, 5-((2-Chloro-4-(methylsulfonyl)benzyl)oxy)-2-((3,4-dihydroisoquinolin-2(1H)-yl)methyl)-4H-pyran-4-one]"
15,301 to 2000,"CS(=O)(=O)N1CCC(COc2coc(CN3Cc4ccc([N+](=O)[O-])cc4C3)cc2=O)CC1 [Compound 207, 5-((1-(Methylsulfonyl)piperidin-4-yl)methoxy)-2-((5-nitroisoindolin-2-yl)methyl)-4H-pyran-4-one]"
16,150 to 300,"CCN(CC)S(=O)(=O)c1ccc(COc2coc(CN3Cc4ccccc4C3)cc2=O)cc1 [Compound 4, N,N-Diethyl-4-(((6-(isoindolin-2-ylmethyl)-4-oxo-4H-pyran-3-yl)oxy)methyl)-benzenesulfonamide]"
17,150 to 300,"CSc1ccc2c(c1)CN(Cc1cc(=O)c(OCc3ccc(S(C)(=O)=O)cc3)co1)C2 [Compound 280, 5-((4-(Methylsulfonyl)benzyl)oxy)-2-((5-(methylthio)isoindolin-2-yl)methyl)-4H-pyran-4-one]"

# — patent US11098032B2, “Pyran dervatives as CYP11A1 (cytochrome P450 monooxygenase 11A1) inhibitors” (ORION CORPORATION, priority 2016, dated 2021)
